By IC50 is commonly meant the midpoint of a concentration-inhibition curve. The low end stands for higher potency, the high end for lower potency. As usually defined, the logD is lipophilicity at a set pH, counting ionised and neutral species. A low value points to a more hydrophilic compound.

Each structure is given as a SMILES string. Calls of active or inactive are those of the source. No cut-off for these calls is given here.

In data set [1] the test system is Colon 26. Nature of the data set: Phototoxicity against mouse Colon 26 cells up to 5 uM incubated for 24 hrs prior to irradiation measured after 30 mins by MTT assay. The data set is classed as functional. A general note: Tetrazolium dyes change colour on reduction, which living cells bring about.
The test system of data set [2] is Colon 26. The data set can be described thus: Dark toxicity against mouse Colon 26 cells up to 5 uM after 24 hrs by MTT assay. Type of data set: functional, cell-based.
Data set [3] deals with Colon 26. Nature of the data set: Drug uptake in mouse Colon 26 cells at 5 uM after 24 hrs by fluorimetric analysis relative to CMP-OH. Particulars: colon 26, 24 h. Type of data set: ADME, cell-based.
In data set [4] the test system is Colon 26. The data set can be described thus: Drug uptake in mouse Colon 26 cells at 10 uM after 24 hrs by fluorimetric analysis relative to CMP-OH. The data set is classed as ADME, cell-based. Particulars: colon 26, 24 h.
Data set [5] relates to Colon 26. The data set can be described thus: Phototoxicity against mouse Colon 26 cells incubated for 24 hrs prior to irradiation measured after 30 mins by MTT assay. The data set is classed as functional, cell-based. The note with it: Colon 26, light or radiation study.
Data set [6] is described as follows: n-octanol-water distribution coefficient, log D of the compound at pH 7.4 by shake flask method. The data set is classed as physicochemical.
The nature of data set [7]: Drug uptake in human MCF7 cells mitochondria at 5 uM after 14 hrs by Rh-123-based dual fluorescence staining method. Type of data set: ADME, cell-based. Particulars: mcf7, 14 h.
The subject of data set [8] is Colon 26. Nature of the data set: Drug uptake in mouse Colon 26 cells at 5 to 10 uM after 24 hrs by fluorimetric analysis. The data set is classed as ADME, cell-based. The note with it: colon 26, 24 h.
Data set [9] is described as follows: Drug uptake in human MCF7 cells cytoplasm at 5 uM after 14 hrs by Rh-123-based dual fluorescence staining method. Type of data set: ADME, cell-based. Particulars: mcf7, 14 h.
The test system of data set [10] is Colon 26. The data set can be described thus: Drug uptake in mouse Colon 26 cells assessed per cell at 5 uM after 24 hrs by fluorimetric analysis. Type of data set: ADME, cell-based. The note with it: colon 26, 24 h.

For `CCN(CC)c1ccc2c(-c3ccccc3C(C)=O)c3ccc(=[N+](CC)CC)cc-3oc2c1`, the outcome in data set [1] and in [2] was inactive.
Take `C1=Cc2nc1c(-c1ccccc1)c1ccc(s1)c(-c1ccccc1)c1nc(c(-c3ccc(OCCC[P+](c4ccccc4)(c4ccccc4)c4ccccc4)cc3)c3ccc(s3)c2-c2ccc(OCCC[P+](c3ccccc3)(c3ccccc3)c3ccccc3)cc2)C=C1.[Br-].[Br-]`: the entries for the “fold change (FC)” value in data set [3] and in [4] were 8.3 and 7, respectively. In data set [1], this molecule showed an Activity of over 70%. In addition, in data set [2], the result was inactive. Also, the half-maximal inhibitory concentration (IC50) in [5] was 1670 nM. For the same molecule, the logD in data set [6] amounted to 1.79. The Drug uptake result in data set [7] and in data set [8] was “Active” each time.
For `CCN(CC)c1ccc2c(-c3ccccc3C(=O)OCCCOc3ccc(-c4c5nc(c(-c6ccccc6)c6ccc(s6)c(-c6ccccc6)c6nc(c(-c7ccccc7)c7ccc4s7)C=C6)C=C5)cc3)c3ccc(=[N+](CC)CC)cc-3oc2c1.[Cl-]`, the “fold change (FC)” value worked out at 10.6 in data set [3] and 7 in [4]. In addition, the Activity in data set [1] was over 70%. The result in data set [2] was inactive. In data set [5], this molecule registered an IC50 of 2360 nM. Also, in data set [6], the logD is 2.01. Also, the Drug uptake entry in data set [9], in data set [7] and in [8] was “Active” in each case.
With `C1=Cc2nc1c(-c1ccccc1)c1ccc(s1)c(-c1ccccc1)c1nc(c(-c3ccc(OCCC[P+](c4ccccc4)(c4ccccc4)c4ccccc4)cc3)c3ccc(s3)c2-c2ccccc2)C=C1.[Br-]`, the “fold change (FC)” value was found to be 18.9 in data set [3] and 14 in [4]. In data set [1], this molecule had an Activity of over 70%. For the same molecule, the result in data set [2] was inactive. The molecule further came in with an IC50 in data set [5] of 900 nM. The molecule also yielded a logD in data set [6] of 2.04. For the same molecule, the Drug uptake entry is listed as “Not Active” in data set [7] and “Active” in data set [8].
`C1=Cc2nc1c(-c1ccccc1)c1nc(c(-c3ccccc3)c3ccc([nH]3)c(-c3ccccc3)c3ccc([nH]3)c2-c2ccccc2)C=C1`: the outcome in data set [2] was inactive.
`CCN(CC)c1ccc2c(-c3ccccc3C(=O)O)c3ccc(=[N+](CC)CC)cc-3oc2c1` [RHODAMINE B] showed a logD in [6] of 2.07.
Consider `Oc1ccc(-c2c3nc(c(-c4ccccc4)c4ccc(s4)c(-c4ccccc4)c4nc(c(-c5ccccc5)c5ccc2s5)C=C4)C=C3)cc1`, for which the Drug uptake in data set [10] stood at 0.19 fmol. Further, the result in data set [1] and in data set [2] was inactive. Further, the logD in data set [6] was determined as 2.3.

For the origin of these results see ChEMBL document CHEMBL2321807, “Synthesis and in vitro biological evaluation of lipophilic cation conjugated photosensitizers for targeting mitochondria” (Bioorg Med Chem, 2013).
